Values joined by “and” are separate entries in the source; they are usually repeats but may differ in a detail not shown here. Equal entries are not always repeated. Where two headings read alike, the source gives them in different places.

By inhibition is commonly meant the share of the control response that was lost under treatment.

For one assay, the system named is Phytophthora infestans. It is filed as in vivo. More on the design: scale not given here. The note with it: Tomato Late Blight, five days.
For another assay, the system named is Piricularia oryzae. It is filed as in vivo. Details: scale not given here. The note with it: Rice Blast, five days.
For a further assay, the system named is Verticillium albo-atrum. The assay is described as follows: Agar dilution plate. It is filed as cell-based. Particulars: Va; 100 ppm, 72 hours at 23° C. In outline: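 Compounds incorporated at about 100 ppm into Sabouraud's dextrose agar, then inoculated with the fungus and incubated about 72 hours at 23° C. Growth scored as 0 (no control) or 5 (100% effectiveness); test repeated twice.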
(In agar dilution, organisms are placed on agar that contains the substance at set levels.)

Assay [1] deals with Stemphylium sarcinaeforme. The assay is described as follows: Agar dilution plate. It is filed as cell-based. Particulars: Ss; 100 ppm, 72 hours at 23° C. In outline: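 Compound incorporated into Sabouraud's dextrose agar at about 100 ppm, inoculated with Stemphylium sarcinaeforme and incubated about 72 hours at 23 °C. Growth scored 0 (no control) or 5 (100% effectiveness), test run in repeat.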

For assay [2], the system named is Collectotrichum lagenarium. The assay can be described thus: Agar dilution plate. It is filed as cell-based. The note with it: Cl; 100 ppm, 72 hours at 23° C. The gist of the method:
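Compounds were incorporated at about 100 ppm in Sabouraud's dextrose agar, inoculated, and incubated about 72 h at 23 °C. Growth was scored 0 (no control) or 5 (100% effectiveness), and the test was repeated twice.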

For assay [3], the system named is Colletotrichum lagenarium. Particulars: in vivo. Also: key: 5: clean, no disease; 4: trace of disease; 3: slight disease; 2: moderate disease; 1: severe disease; 0: like controls.
For another assay, the system named is Venturia inaequalis. The note with it: in vivo. Also: key: 5: clean, no disease; 4: trace of disease; 3: slight disease; 2: moderate disease; 1: severe disease; 0: like controls.
A further assay has as its system Aerobacter aerogenes. It is filed as cell-based. The note with it: 100 ppm; subcultures 72 hours at 37° C. Also: key: 0: No Effect; 9: Kill of Bacteria; 5: Stasis, but not Kill of all Bacteria.
For another assay, the system named is Staphylococcus aureus. It is filed as cell-based. Particulars: 100 ppm; subcultures 72 hours at 37° C. Also: key: 0: No Effect; 9: Kill of Bacteria; 5: Stasis, but not Kill of all Bacteria.
A further assay has as its system Pseudomonas solaracaerum. Type of assay: cell-based. Particulars: 100 ppm, 72 hours at 23° C.
Assay [4] relates to Monilinia fructicola. The assay can be described thus: Agar dilution plate. Particulars: Mf; 100 ppm, 72 hours at 23° C. It is filed as cell-based. The gist of the method: (§1)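 Active ingredient is incorporated at about 100 ppm into Sabouraud's dextrose agar. The solidified plate is inoculated with the organism and incubated roughly 72 hours at 23° C. Growth is then rated 0 or 5, where 5 means 100% effectiveness.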

The next assay deals with Pythium de Baryanum. The assay can be described thus: Agar dilution plate. Type of assay: cell-based. Particulars: Pd; 100 ppm, 72 hours at 23° C. In outline:
as §1

Assay [5] concerns Aspergillus niger. The assay can be described thus: Agar dilution plate. It is filed as cell-based. The note with it: An; 100 ppm, 72 hours at 23° C. In outline:
as §1

The next assay deals with Rhizoctonia solani. The assay can be described thus: Agar dilution plate. It is filed as cell-based. The note with it: Rs; 100 ppm, 72 hours at 23° C. In outline:
as §1

A further assay has as its system Fusarium lycopersici. The assay can be described thus: Agar dilution plate. It is filed as cell-based. Particulars: Fl; 100 ppm, 72 hours at 23° C. In outline:
as §1

A further assay concerns Xanthomonas vesicatoria. Type of assay: cell-based. Particulars: 100 ppm; subcultures 72 hours at 37° C. Also: key: 0: No Effect; 9: Kill of Bacteria; 5: Stasis, but not Kill of all Bacteria.
Assay [6] concerns Monilinia fructicola. The assay can be described thus: Spore germination inhibition. Type of assay: cell-based. Particulars: for inhibition at 1 ppm / inhibition at 10 ppm: 24 hours; for inhibition at 100 ppm: 24 h, read-out: % Inhibition of Spore Germination. The gist of the method: (§2)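 Test compounds were suspended in water at 100, 10 or 1 ppm and inoculated with spore suspensions from 7-day (A. niger) or 14-day potato-dextrose agar cultures. Vials were tumbled for 24 hours and then examined for inhibition of mycelial growth.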

In assay [7] the test system is Stemphylium sarcinaeforme. The assay can be described thus: Spore germination inhibition. It is filed as cell-based. The note with it: Stemphylium sarciniforme; for inhibition at 100 ppm: 24 h, read-out: % Inhibition of Spore Germination. In outline: as §2
Assay [8] concerns Aspergillus niger. The assay is described as follows: Spore germination inhibition. The note with it: 24 hours. Type of assay: cell-based. In outline: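 Test compound is suspended in water at 100, 10 or 1 ppm. and dispensed into one dram "opticlear" vials. Each vial receives one drop of a spore suspension taken from seven-day Aspergillus niger cultures grown on potato-dextrose agar. Capped vials rotate on a tumbler for 24 hours, then are inspected for inhibition of mycelial growth.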

As to `CN(C)C(=S)SC(c1ccc(Cl)cc1Cl)C(C(c1ccc(Cl)cc1Cl)N(C)C)[N+](=O)[O-]` (stereo not drawn) [Example 8, 1,3-Bis(2,4-dichlorophenyl)-3-dimethylamino-2-nitropropyl Dimethyldithiocarbamate], the disease control index in the assay with Phytophthora infestans (at 100 ppm) was 5; with Phytophthora infestans (at 500 ppm), 5; in the assay on Piricularia oryzae (at 100 ppm), 5; with Piricularia oryzae (at 500 ppm), 5; in assay [3] it was 5; with Venturia inaequalis, 5 and 4. Moreover, the “Agar Dilution Plate rating” value in the assay with Verticillium albo-atrum is given as 5 (100% effectiveness of the test compound against the specified organism); in assay [1], 0; in assay [2], 0; with Pseudomonas solaracaerum it was 0; in the assay on Monilinia fructicola [4], 5 (100% effectiveness of the test compound against the specified organism); with Pythium de Baryanum, 0. The “Agar Dilution Plate rating” value in the assay on Aspergillus niger [5], with Rhizoctonia solani and in the assay on Fusarium lycopersici was 0 throughout. The “Antibacterial Activity rating” value in the assay on Aerobacter aerogenes stood at 0; in the assay with Staphylococcus aureus, 5; with Xanthomonas vesicatoria, 0.

For the molecule `CN(C)C(=S)SC(C[N+](=O)[O-])c1ccc2c(c1)OCO2` (stereo not drawn) [Example 28, 3,4-(Methylenedioxy)-α-(nitromethyl)benzyl Dimethyldithiocarbamate], the disease control index in the assay with Phytophthora infestans (at 100 ppm) is given as 5; with Phytophthora infestans (at 500 ppm), 5; in the assay on Piricularia oryzae (150 ppm), 0; in the assay on Piricularia oryzae (300 ppm), 0; in the assay on Piricularia oryzae (600 ppm), 5; in the assay on Piricularia oryzae (1200 ppm) it was 5. Besides, the disease control index in assay [3] was 5; in the assay with Venturia inaequalis, 5 and 0. For the same molecule, the “Agar Dilution Plate rating” value in the assay with Verticillium albo-atrum is on record as 5 (100% effectiveness of the test compound against the specified organism); in [1], 5 (100% effectiveness of the test compound against the specified organism); in assay [2], 5 (100% effectiveness of the test compound against the specified organism); with Pseudomonas solaracaerum, 0; with Monilinia fructicola [4] it was 5 (100% effectiveness of the test compound against the specified organism); in the assay with Pythium de Baryanum, 5 (100% effectiveness of the test compound against the specified organism). For the same molecule, the “Agar Dilution Plate rating” value in the assay with Aspergillus niger [5], in the assay with Rhizoctonia solani and in the assay with Fusarium lycopersici was 0 in each case. Moreover, the “Antibacterial Activity rating” value was determined as 9 with Aerobacter aerogenes, 5 with Staphylococcus aureus and 5 with Xanthomonas vesicatoria. Further, the inhibition at 1 ppm with Monilinia fructicola [6] is 100%; in assay [7] (1 ppm, 24 hours), 0%; in the assay on Aspergillus niger [8], 100%. The inhibition at 10 ppm in the assay with Monilinia fructicola [6] was 100%; in [7] (10 ppm, 24 hours), 0%; in the assay with Aspergillus niger [8] it was 100%. For the same molecule, the inhibition at 100 ppm (in the assay with Monilinia fructicola [6]; in [7]; in the assay with Aspergillus niger [8]) was 100% in each case.

As to `CC(C(SC(=S)N(C)C)c1ccccc1)[N+](=O)[O-]` (stereo not drawn) [Example 18, α-(1-Nitroethyl)benzyl Dimethyldithiocarbamate], the disease control index (in the assay on Phytophthora infestans (at 100 ppm); with Phytophthora infestans (at 500 ppm); in the assay on Piricularia oryzae (at 100 ppm); with Piricularia oryzae (at 500 ppm); in [3]; with Venturia inaequalis) was 5 each time. For the same molecule, the “Agar Dilution Plate rating” value was 5 (100% effectiveness of the test compound against the specified organism) in the assay on Verticillium albo-atrum; 5 (100% effectiveness of the test compound against the specified organism) in [1]; 5 (100% effectiveness of the test compound against the specified organism) in [2]; 0 in the assay with Pseudomonas solaracaerum; 5 (100% effectiveness of the test compound against the specified organism) in the assay on Monilinia fructicola [4]; 5 (100% effectiveness of the test compound against the specified organism) in the assay on Pythium de Baryanum. Besides, the results for the “Agar Dilution Plate rating” value in the assay on Aspergillus niger [5], with Rhizoctonia solani and in the assay on Fusarium lycopersici were 0, 5 (100% effectiveness of the test compound against the specified organism) and 5 (100% effectiveness of the test compound against the specified organism), respectively. The “Antibacterial Activity rating” value with Aerobacter aerogenes is 0; in the assay on Staphylococcus aureus, 5; in the assay on Xanthomonas vesicatoria, 0.

For `CN(C)CC(C)(CSC(=S)N(C)C)[N+](=O)[O-]` (stereo not drawn) [Example 7, 3-Dimethylamino-2-methyl-2-nitropropyl Dimethyldithiocarbamate], the disease control index is 2 in the assay with Piricularia oryzae (150 ppm); 2 in the assay with Piricularia oryzae (300 ppm); 4 with Piricularia oryzae (600 ppm); 5 in the assay with Piricularia oryzae (1200 ppm); 2 in [3]; 5 and 0 in the assay on Venturia inaequalis. The “Agar Dilution Plate rating” value in the assay on Verticillium albo-atrum is on record as 5 (100% effectiveness of the test compound against the specified organism); in [1] it was 5 (100% effectiveness of the test compound against the specified organism); in assay [2], 5 (100% effectiveness of the test compound against the specified organism); in the assay with Pseudomonas solaracaerum, 0; in the assay with Monilinia fructicola [4], 5 (100% effectiveness of the test compound against the specified organism); with Pythium de Baryanum, 0. Besides, the entries for the “Agar Dilution Plate rating” value in the assay on Aspergillus niger [5], in the assay on Rhizoctonia solani and with Fusarium lycopersici were 0, 5 (100% effectiveness of the test compound against the specified organism) and 0, respectively. The “Antibacterial Activity rating” value with Aerobacter aerogenes was 9; in the assay on Staphylococcus aureus it was 9; in the assay on Xanthomonas vesicatoria it was 5. In addition, the inhibition at 1 ppm with Monilinia fructicola [6] and in the assay on Aspergillus niger [8] was 0% each time. For the same molecule, the inhibition at 10 ppm in the assay on Monilinia fructicola [6] and in the assay on Aspergillus niger [8] was 100% throughout. Besides, the figures for the inhibition at 100 ppm (in the assay on Monilinia fructicola [6]; in assay [7]; in the assay with Aspergillus niger [8]) were 100%, 0% and 100%, respectively.

(Values after patent US4148795A, “Dithiocarbamate ester bactericides and fungicides” (American Cyanamid Company, priority 1976, dated 1979).)
